{
  "source": "ChEMBL document CHEMBL3779887",
  "about": "“Robenidine Analogues as Gram-Positive Antibacterial Agents” (J Med Chem, 2016)",
  "format_in_all_cases": "functional",
  "key": {"Enterococcus": {"test_system": "Enterococcus", "assay": "Antibacterial activity against vancomycin-resistant Enterococcus after 20 to 24 hrs"}, "Staphylococcus aureus [1]": {"test_system": "Staphylococcus aureus", "assay": "Bactericidal activity against methicillin-resistant Staphylococcus aureus clinical isolate after 24 and 48 hrs"}, "Staphylococcus aureus [2]": {"test_system": "Staphylococcus aureus", "assay": "Bactericidal activity against methicillin-sensitive Staphylococcus aureus ATCC 25923 after 24 and 48 hrs"}, "Staphylococcus aureus [3]": {"test_system": "Staphylococcus aureus", "assay": "Bactericidal activity against methicillin-sensitive Staphylococcus aureus ATCC 29213 after 24 and 48 hrs"}, "Staphylococcus aureus [4]": {"test_system": "Staphylococcus aureus", "assay": "Bactericidal activity against methicillin-sensitive Staphylococcus aureus ATCC 49775 after 24 and 48 hrs"}, "Staphylococcus aureus [5]": {"test_system": "Staphylococcus aureus", "assay": "Bactericidal activity against methicillin-sensitive Staphylococcus aureus ATCC 6538 after 24 and 48 hrs"}, "Pseudomonas aeruginosa [6]": {"test_system": "Pseudomonas aeruginosa", "assay": "Antibacterial activity against Pseudomonas aeruginosa ATCC 27853 after 20 to 24 hrs"}, "Staphylococcus aureus [7]": {"test_system": "Staphylococcus aureus", "assay": "Antibacterial activity against methicillin-resistant Staphylococcus aureus after 20 to 24 hrs"}, "Staphylococcus aureus [8]": {"test_system": "Staphylococcus aureus", "assay": "Antibacterial activity against methicillin-sensitive Staphylococcus aureus ATCC 49775 after 20 to 24 hrs"}, "Staphylococcus aureus [9]": {"test_system": "Staphylococcus aureus", "assay": "Antibacterial activity against methicillin-sensitive Staphylococcus aureus ATCC 6538 after 20 to 24 hrs"}, "Escherichia coli [10]": {"test_system": "Escherichia coli", "assay": "Antibacterial activity against Escherichia coli ATCC 25922 after 20 to 24 hrs"}, "Staphylococcus aureus [11]": {"test_system": "Staphylococcus aureus", "assay": "Antibacterial activity against methicillin-sensitive Staphylococcus aureus ATCC 29213 after 20 to 24 hrs"}, "Staphylococcus aureus [12]": {"test_system": "Staphylococcus aureus", "assay": "Antibacterial activity against methicillin-resistant Staphylococcus aureus clinical isolate after 20 to 24 hrs"}, "Staphylococcus aureus [13]": {"test_system": "Staphylococcus aureus", "assay": "Antibacterial activity against methicillin-sensitive Staphylococcus aureus ATCC 25923 after 20 to 24 hrs"}, "Escherichia coli [14]": {"test_system": "Escherichia coli", "assay": "Antibacterial activity against Escherichia coli ATCC 25922 after 20 to 24 hrs in presence of polymyxin B nonapeptide"}, "Pseudomonas aeruginosa [15]": {"test_system": "Pseudomonas aeruginosa", "assay": "Antibacterial activity against Pseudomonas aeruginosa ATCC 27853 after 20 to 24 hrs in presence of polymyxin B nonapeptide"}},
  "data": [
    {"smiles": "CC1(C)S[C@@H]2[C@H](NC(=O)[C@H](N)c3ccccc3)C(=O)N2[C@H]1C(=O)O", "note": "[AMPICILLIN]", "values": [
      {"measurement": "MIC", "setting": "Enterococcus", "value": 11.5, "unit": "µM"},
      {"measurement": "MBC", "setting": "Staphylococcus aureus [1]", "value": 2, "unit": "µM"},
      {"measurement": "MBC", "setting": "Staphylococcus aureus [2]", "value": 2, "unit": "µM"},
      {"measurement": "MBC", "setting": "Staphylococcus aureus [3]", "value": 2, "unit": "µM"},
      {"measurement": "MBC", "setting": "Staphylococcus aureus [4]", "value": 2, "unit": "µM"},
      {"measurement": "MBC", "setting": "Staphylococcus aureus [5]", "value": 2, "unit": "µM"},
      {"measurement": "MIC", "setting": "Pseudomonas aeruginosa [6]", "value": 366, "unit": "µM"},
      {"measurement": "MIC", "setting": "Staphylococcus aureus [7]", "value": 183, "unit": "µM"},
      {"measurement": "MIC90", "setting": "Staphylococcus aureus [8]", "value": 0.3, "unit": "µM"},
      {"measurement": "MIC90", "setting": "Staphylococcus aureus [9]", "value": 0.3, "unit": "µM"},
      {"measurement": "MIC", "setting": "Escherichia coli [10]", "value": 45.8, "unit": "µM"},
      {"measurement": "MIC90", "setting": "Staphylococcus aureus [11]", "value": 0.3, "unit": "µM"},
      {"measurement": "MIC90", "setting": "Staphylococcus aureus [12]", "value": 0.3, "unit": "µM"},
      {"measurement": "MIC90", "setting": "Staphylococcus aureus [13]", "value": 0.3, "unit": "µM"}
    ]},
    {"smiles": "CC(C)/N=c1\\cc2n(-c3ccc(Cl)cc3)c3ccccc3nc-2cc1Nc1ccc(Cl)cc1", "note": "[CLOFAZIMINE]", "values": [
      {"measurement": "MIC90", "setting": "Escherichia coli [14]", "value": 4.2, "unit": "µM"},
      {"measurement": "MIC90", "setting": "Pseudomonas aeruginosa [6]", "value": "> 250", "unit": "µM"},
      {"measurement": "MIC90", "setting": "Escherichia coli [10]", "value": "> 250", "unit": "µM"},
      {"measurement": "MIC90", "setting": "Pseudomonas aeruginosa [15]", "value": 8.4, "unit": "µM"}
    ]},
    {"smiles": "N=C(N/N=C/c1ccccc1F)N/N=C/c1ccccc1F", "values": [
      {"measurement": "MIC", "setting": "Enterococcus", "value": "> 400", "unit": "µM"},
      {"measurement": "MIC", "setting": "Pseudomonas aeruginosa [6]", "value": "> 400", "unit": "µM"},
      {"measurement": "MIC", "setting": "Staphylococcus aureus [7]", "value": "> 400", "unit": "µM"},
      {"measurement": "MIC", "setting": "Escherichia coli [10]", "value": "> 400", "unit": "µM"}
    ]},
    {"smiles": "COc1ccc(/C=N/NC(=N)N/N=C/c2ccc(OC)c(O)c2)cc1O", "values": [
      {"measurement": "MIC", "setting": "Enterococcus", "value": "> 400", "unit": "µM"},
      {"measurement": "MIC", "setting": "Pseudomonas aeruginosa [6]", "value": "> 400", "unit": "µM"},
      {"measurement": "MIC", "setting": "Staphylococcus aureus [7]", "value": "> 400", "unit": "µM"},
      {"measurement": "MIC", "setting": "Escherichia coli [10]", "value": "> 400", "unit": "µM"}
    ]}
  ]
}
